Results reported in patent US20240408072A1, “COMPOSITION FOR PREVENTING OR TREATING GRAVES' DISEASE COMPRISING COMPOUND CONTAINING AN IMIDAZOPYRIDINE STRUCTURE AS ACTIVE INGREDIENT” (ESGELBIO INC., priority 2021, published 2024).
Entries after “also recorded” stand apart in the source; their conditions may differ. Where two headings read alike, the source gives them in different places.

Columns and labels:
[1] = target: thyroid peroxidase (TPO) (Homo sapiens (Human), UniProt P07202); assay: Thyroid peroxidase (TPO) inhibition IC50; format: biochemical; settings: Table 3
[2] = target: Human MPO (Homo sapiens (Human), UniProt P05164); assay: Myeloperoxidase (MPO) inhibition IC50 screening; format: biochemical
Excerpt: To discover new therapeutics for the treatment of Graves' disease, the inventors screened compounds for inhibition activity against myeloperoxidase (MPO). The screening process is schematically represented in FIG. 1. Use was made of approximately 7,000 compounds for the screening.

[3] = target: HL-60 MPO (Homo sapiens (Human), UniProt P05164); assay: HL-60 MPO inhibition, drugs treated to media; format: cell-based
Experimental: The screening of compounds for MPO inhibition activity was conducted in three stages.

[4] = tested on: TPO (thyroid peroxidase) expression; assay: Inhibition of TPO expression in SNU760 cells; format: cell-based; settings: 50 uM, SNU760 Human Thyroid cell lines, FIG. 2
Experimental: (§1) To confirm whether the imidazopyridine scaffold-bearing compounds screened in Example 1 could be used as treatments for Graves' disease, SNU760 Human Thyroid cell lines were treated with various concentrations of each compound and then analyzed their ability to inhibit the expression of TPO (thyroid peroxidase) and TG (thyroglobulin).

[5] = tested on: TG (thyroglobulin) expression; assay: Inhibition of TG expression in SNU760 cells; format: cell-based; settings: 50 uM, SNU760 Human Thyroid cell lines, FIG. 2
Experimental: as §1

[6] = tested on: Graves' disease-induced mice; assay: Thyroid size in Graves' disease-induced (Ad-TSHR) mice; format: in vivo, BALB/c mice; settings: 10 mg/kg daily for three weeks, abdominal cavity, vs Ad-TSHR group, FIG. 7
Experimental: (§2) To create a mouse model with induced Graves' disease, 6-week-old female BALB/c mice were used. The thyroid stimulating hormone receptor (TSHR) expressing adenovirus, Ad-TSHR, was purchased from VectorBuilder (Chicago, USA, www.vectorbuilder.com). […] The virus was injected three times at three-week intervals, totaling nine weeks of injections to induce overexpression of TSHR and thereby cause Graves' disease.
(§3) In the Graves' disease-induced mouse model established in <3-1>, the therapeutic effectiveness of the imidazopyridine scaffold-bearing compounds screened in the present disclosure was evaluated.
(§4) After extracting the thyroid glands from each mouse, the sizes of the thyroids were visually compared, and the concentration of thyroxine (T4) in the blood was analyzed.

[7] = tested on: Graves' disease-induced mice; assay: Serum thyroxine (T4) in Graves' disease-induced (Ad-TSHR) mice; format: in vivo, BALB/c mice; settings: 10 mg/kg daily for three weeks, abdominal cavity, FIG. 8
Experimental: as §2, §3, §4
After administering drugs for three weeks to mice in which Graves' disease was induced by the Ad-TSHR virus over nine weeks, the serum was isolated to measure the concentration of thyroxine (T4).

Human MPO, sequence (P05164 49-745): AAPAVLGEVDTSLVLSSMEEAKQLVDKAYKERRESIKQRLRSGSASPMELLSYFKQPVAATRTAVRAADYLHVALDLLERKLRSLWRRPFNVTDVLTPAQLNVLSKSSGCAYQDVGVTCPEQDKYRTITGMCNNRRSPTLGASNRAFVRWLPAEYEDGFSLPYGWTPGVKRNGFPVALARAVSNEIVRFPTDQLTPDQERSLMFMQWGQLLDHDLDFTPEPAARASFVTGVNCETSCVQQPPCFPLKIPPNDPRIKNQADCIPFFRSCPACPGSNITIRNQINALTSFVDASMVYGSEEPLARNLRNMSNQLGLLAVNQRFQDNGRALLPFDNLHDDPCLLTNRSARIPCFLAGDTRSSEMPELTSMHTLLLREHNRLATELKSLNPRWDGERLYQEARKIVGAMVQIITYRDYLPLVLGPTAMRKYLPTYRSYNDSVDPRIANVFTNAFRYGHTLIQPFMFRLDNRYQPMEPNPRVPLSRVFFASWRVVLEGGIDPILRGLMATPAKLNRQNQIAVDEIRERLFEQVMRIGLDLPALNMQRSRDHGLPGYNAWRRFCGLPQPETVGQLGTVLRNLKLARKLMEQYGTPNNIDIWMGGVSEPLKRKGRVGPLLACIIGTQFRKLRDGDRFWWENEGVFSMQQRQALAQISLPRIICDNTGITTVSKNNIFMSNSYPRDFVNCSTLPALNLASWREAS
HL-60 MPO, sequence (P05164 49-745): as above
thyroid peroxidase (TPO), sequence (P07202 19-933, species assumed): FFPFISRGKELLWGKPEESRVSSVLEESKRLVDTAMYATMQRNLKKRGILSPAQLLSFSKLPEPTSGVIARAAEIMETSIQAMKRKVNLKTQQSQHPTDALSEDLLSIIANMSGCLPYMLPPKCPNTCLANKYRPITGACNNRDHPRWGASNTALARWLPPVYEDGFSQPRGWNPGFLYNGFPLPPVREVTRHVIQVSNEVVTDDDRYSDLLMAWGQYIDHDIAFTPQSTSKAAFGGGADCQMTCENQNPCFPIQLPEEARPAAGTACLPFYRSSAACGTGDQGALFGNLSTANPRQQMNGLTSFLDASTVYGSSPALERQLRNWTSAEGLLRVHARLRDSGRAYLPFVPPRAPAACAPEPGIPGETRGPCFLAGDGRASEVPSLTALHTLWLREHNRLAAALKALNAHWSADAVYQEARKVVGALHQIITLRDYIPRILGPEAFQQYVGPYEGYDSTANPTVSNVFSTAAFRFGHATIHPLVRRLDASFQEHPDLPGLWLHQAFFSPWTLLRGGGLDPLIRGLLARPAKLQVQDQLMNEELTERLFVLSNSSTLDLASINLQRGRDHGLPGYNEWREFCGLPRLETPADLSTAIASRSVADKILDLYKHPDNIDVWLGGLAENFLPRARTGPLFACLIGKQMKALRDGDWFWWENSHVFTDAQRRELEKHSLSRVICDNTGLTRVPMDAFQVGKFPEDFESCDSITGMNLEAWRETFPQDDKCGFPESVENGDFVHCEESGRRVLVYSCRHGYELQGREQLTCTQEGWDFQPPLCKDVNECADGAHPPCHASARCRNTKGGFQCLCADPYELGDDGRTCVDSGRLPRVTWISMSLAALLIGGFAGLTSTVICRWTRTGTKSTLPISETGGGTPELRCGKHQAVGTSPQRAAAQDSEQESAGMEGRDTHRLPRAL

COc1ccc(-c2nc3cc(C)ccn3c2Nc2ccc3c(c2)OCO3)cc1 [NE-2-7, N-(2H-1,3-BENZODIOXOL-5- YL)-2-(4-METHOXYPHENYL)-7- METHYLIMIDAZO[1,2- A]PYRIDIN-3-AMINE]
IC50 [1]: 0.02 µM

CC(C)OCCn1c(=S)[nH]c(=O)c2[nH]ccc21 [AZD3241]
IC50 ([2]; Chemical Library 2nd Screening, MPO, read-out: IC50): 0.021 µM | IC50 ([2]; Chemical Library 3rd Screening, read-out: IC50 (uM) (Human MPO)): 0.021 µM | HL-60 MPO Inhibition (%) (treat to media) ([3]; 2nd Screening): 0% | inhibition at 25 µM ([3]; HL-60, 3rd Screening, 25 uM, read-out: HL-60 MPO Inhibition (%) (25 uM of Drugs are treated to media)): 0%

Cc1ccc2nc(-c3cccnc3)c(Nc3ccc4c(c3)OCO4)n2c1 [NE-2-6, N-(2H-1,3-BENZODIOXOL-5-YL)-6-METHYL-2-(PYRIDIN-3-YL) IMIDAZO [1,2-A]PYRIDIN-3-AMINE]
inhibition of the expression of TPO [4]: ~100% | inhibition of the expression of TG [5]: ~100% | thyroid size (visually compared) [6]: effectively reduced thyroid sizes; also recorded: nearly restored to normal levels | serum thyroxine (T4) concentration [7]: significant reduction; also recorded: more effective
